Test results from patent US9561231B2 (AbbVie Inc., priority 2012, dated 2017).
pEC50, pKi: −log10 of the molar value.

Assays:
H460 = assay: Proliferation panel assay: H460; format: cell-based; settings: Homo sapiens, NCI-H460, 120 h; H460 (NSCLC); 5 days, Cell Titer Glo; read-out: Cellular Proliferation EC50
[1] = molecular target: T1, second (BD2: amino acids E352-E168) bromodomain of BRD4 (Homo sapiens, UniProt O60885); assay: TR-FRET bromodomain binding assay, BRD4 BD2; settings: TR-FRET assay protocol (A-G, compound concentration range); Ki calculated from IC50, probe Kd and probe concentration; read-out: TR-FRET Binding Ki: BRD4 (BDII_E352-M457)
T1 construct: protocol
Summary of the method: (§1)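 Compounds were serially diluted in DMSO, diluted into pH 6.0 phosphate buffer with NaCl, EDTA, Triton X-100 and DTT, then combined with His-tagged bromodomain and an Alexa647-labeled BET-inhibitor probe. TR-FRET was read, percent inhibition fitted to give IC50, and Ki derived using probe Kd.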

H1299 = assay: Proliferation panel assay: H1299; format: cell-based; settings: Homo sapiens, NCI-H1299, 120 h; H1299 (NSCLC); 5 days, Cell Titer Glo; read-out: Cellular Proliferation EC50
Raji = assay: Proliferation panel assay: Raji; format: cell-based; settings: Homo sapiens, 120 h; Raji (Burkitt lymphoma); 5 days, Cell Titer Glo; read-out: Cellular Proliferation EC50
RPMI-8226 = assay: Proliferation panel assay: RPMI-8226; format: cell-based; settings: Homo sapiens, 120 h; RPMI-8226 (Multiple Myeloma); 5 days, Cell Titer Glo; read-out: Cellular Proliferation EC50
EJ-1 = assay: Proliferation panel assay: EJ-1; format: cell-based; settings: EJ1, 120 h; EJ-1 (Bladder); 5 days, Cell Titer Glo; read-out: Cellular Proliferation EC50
H1975 = assay: Proliferation panel assay: H1975; format: cell-based; settings: Homo sapiens, NCI-H1975, 120 h; H1975 (NSCLC); 5 days, Cell Titer Glo; read-out: Cellular Proliferation EC50
OPM2 = assay: Proliferation panel assay: OPM2; format: cell-based; settings: Homo sapiens, OPM-2, 120 h; OPM2 (Multiple Myeloma); 5 days, Cell Titer Glo; read-out: Cellular Proliferation EC50
A-375 = assay: Proliferation panel assay: A-375; format: cell-based; settings: Homo sapiens, 120 h; A-375 (Melanoma); 5 days, Cell Titer Glo; read-out: Cellular Proliferation EC50
786-0 = assay: Proliferation panel assay: 786-0; format: cell-based; settings: Homo sapiens, 120 h; 786-0 (RCC); 5 days, Cell Titer Glo; read-out: Cellular Proliferation EC50
GEO = assay: Proliferation panel assay: GEO; format: cell-based; settings: 120 h; GEO (Colon); 5 days, Cell Titer Glo; read-out: Cellular Proliferation EC50
SKM1 = assay: Proliferation panel assay: SKM1; format: cell-based; settings: Homo sapiens, SKM-1, 120 h; SKM1 (AML); 5 days, Cell Titer Glo; read-out: Cellular Proliferation EC50
[2] = molecular target: T2, first (BD1: amino acids K57-E168) bromodomain of BRD4 (Homo sapiens, UniProt O60885); assay: TR-FRET bromodomain binding assay, BRD4 BD1; settings: TR-FRET assay protocol (A-G, compound concentration range); Ki calculated from IC50, probe Kd and probe concentration; read-out: TR-FRET Binding Ki: BRD4 (BDI_K57-E168)
T2 construct: His-tagged first (BD1: amino acids K57-E168)
Summary of the method: as §1

SK-LMS-1 = assay: Proliferation panel assay: SK-LMS-1; format: cell-based; settings: Homo sapiens, 120 h; SK-LMS-1 (Sarcoma); 5 days, Cell Titer Glo; read-out: Cellular Proliferation EC50
PC3M = assay: Proliferation panel assay: PC3M; format: cell-based; settings: Homo sapiens, PC-3M, 120 h; PC3M (Prostate); 5 days, Cell Titer Glo; read-out: Cellular Proliferation EC50
[3] = tested on: breast cancer cell line MX-1; assay: MX-1 cell line proliferation assay (3-day); format: cell-based; settings: Homo sapiens, MX1; MX-1 cells, 72 h incubation, Cell Titer Glo; read-out: Cellular proliferation: EC50
Summary of the method: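 EC50 derived by sigmoidal fitting of Cell Titer Glo signal relative to DMSO controls. Compound, 3 μM down to 0.0001 μM final in 3-fold steps, was added to adhered MX-1 cells (5000/well, RPMI + 10% FBS) for a 3-day incubation at 37° C.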

BxPC3FP5 = assay: Proliferation panel assay: BxPC3FP5; format: cell-based; settings: 120 h; BxPC3FP5 (Pancreas); 5 days, Cell Titer Glo; read-out: Cellular Proliferation EC50
HepG2 = assay: Proliferation panel assay: HepG2; format: cell-based; settings: Homo sapiens, 120 h; HepG2 (Hepatocellular); 5 days, Cell Titer Glo; read-out: Cellular Proliferation EC50

SMILES | pEC50 (H460) | pKi [1] | pEC50 (H1299) | pEC50 (Raji) | pEC50 (RPMI-8226) | pEC50 (EJ-1) | pEC50 (H1975) | pEC50 (OPM2) | pEC50 (A-375) | pEC50 (786-0) | pEC50 (GEO) | pEC50 (SKM1) | pKi [2] | pEC50 (SK-LMS-1) | pEC50 (PC3M) | pEC50 [3] | pEC50 (BxPC3FP5) | pEC50 (HepG2)
Cn1cc(-c2cc(NS(C)(=O)=O)ccc2Oc2ccccc2)ccc1=O [Example 224, N-[3-(1-methyl-6-oxo-1,6-dihydropyridin-3-yl)-4-phenoxyphenyl]methanesulfonamide] | 6.96 | 6.95 | 6.12 | 6.89 | 6.55 | 5.80 | 6.42 | 7.30 | 6.37 | 6.56 | 6.26 | 6.94 | 7.32 | 6.35 | 5.84 | 6.68 | 6.64 | 6.31
Cc1cc(-c2cc(NS(C)(=O)=O)ccc2Oc2ccccc2)c[nH]c1=O [Example 261, N-[3-(5-methyl-6-oxo-1,6-dihydropyridin-3-yl)-4-phenoxyphenyl]methanesulfonamide] | 6.51 | 7.18 | 6.13 | 6.87 | 6.52 | 5.94 | 6.33 | 7.26 | 6.30 | 6.60 | 6.17 | 6.87 | 7.59 | 6.46 | 5.85 | 6.41 | 6.64 | 6.29
